Measured values reported in patent publication US20200003756A1, “METHOD FOR OBSERVING SEBACEOUS GLAND” (MANDOM CORPORATION, priority 2017, published 2020).

Legend:
[1] = tested on: sebaceous-gland-structure A; assay: Degree of sebum production from three-dimensional image analysis of outermost layer (Example 4); type: cell-based; settings: linoleic acid 1×10^−4 M, 24 hours
Method: Linoleic acid and phytic acid as test substances were added to the mixed medium obtained in Preparation Example 1 (test sample A) so that the concentration of linoleic acid was 1×10^−4M and so that the concentration of the test sample was 100 μM, to obtain a test sample E. One milliliter of the test sample A was added to each well of a 24-well plate. Text, the sebaceous-gland-structure A obtained in Preparation Example 6 was cultured in a suspended state in the test sample A contained in each well of the 24-well plate in the presence of 5% by volume carbon dioxide at 37° C. for 24 hours, to contact the sebaceous-gland-structure A with the test sample A (Experiment number 10). In addition, the sebaceous-gland-structure A was contacted with the test sample B (Experiment number 11) or the test sample E (Experiment number 12) in the same manner as in Experiment, number 10 except that in Experiment number 10, the test sample B obtained in Example 1(1) (Experiment number 11) or the test sample E obtained in Example 4(1) (Experiment number 12) was used in place of the test sample A. Each of observation samples of Experiment numbers 10 to 12 was obtained in the same manner as in Preparation Example 7 except that in Preparation Example 7, the cultured sebaceous-gland-structure A obtained in Example 4(2) (Experiment numbers 10 to 12) was used in place of the cultured sebaceous-gland-structure A obtained in Preparation Example 6. The appearance of the sebaceous-gland-structure A contained in the observation sample of each of Experiment numbers 10 to 12 obtained in Example 4(3) was observed under a confocal microscope by using image analysis software (manufactured b Bitplane AG, trade name: Imaris), thereby giving three-dimensional image of the sebaceous-gland-structure A. Next, information of the outermost layer of the sebaceous-gland-structure A was extracted from the data of the resulting three-dimensional image by using image analysis software (manufactured by Bitplane AG, trade name: Imaris). Thereafter, the whole volume of the cells present in the outermost layer was calculated from the extracted information, and thereafter the sebum droplets contained in the outermost layer were counted. Using the whole volume of the cells present in the outermost layer and the number of lipid droplets of the sebum the degree of sebum production was calculated according to Formula (I): [Degree of Sebum production]=[Number of lipid droplets of sebum]/[Whole volume of cells present in outermost layer] (I)

[2] = tested on: sebaceous-gland-structure A; assay: Observation of inside of sebaceous-gland-structure, lipid droplets of sebum in outermost layer / degree of progress of sebum production (Example 2); type: cell-based; settings: test sample B, linoleic acid 1×10^−4 M, 24 hours (Experiment number 8); FIGS. 8 and 10
Method: Linoleic acid and linoleic acid receptor antagonist (manufactured by Abeam plc, trade name: GSK-3787) as test substances were added to the mixed medium obtained in Preparation Example 1 so that the concentration of linoleic acid was 1×10^−4 M and so that the concentration of the test substance was 1 μM, to obtain a test sample D.
One milliliter of the test sample A was added to each well of a 24-well plate. Next, the sebaceous-gland-structure A obtained in Preparation Example 6 was cultured in a suspended state in the test sample A in each well of the 24-well plate in the presence of 5% by volume carbon dioxide at 37° C. for 24 hours, to contact the sebaceous-gland-structure A with the test sample A (Experiment number 7). […]
Furthermore, the state of each cell of 40 cells in the outermost layer shown in each figure was evaluated by using the results shown in FIGS. 7 to 9 on the basis of the evaluation criterion described below. […]
Next, the degree of progress of sebum production in the sebaceous gland cell contained in the sebaceous-gland-structure A was evaluated by calculating the mean value of the points in the 40 cells in the outermost layer in FIGS. 7 to 9. […]

`CCCCC/C=C\C/C=C\CCCCCCCC(=O)O` [linoleic acid, Linoleic acid] was tested, and the sebum production-regulating action ([1]; conclusion from FIG. 11) was “sebum production-promoting action”, the “degree of sebum production (number of lipid droplets of sebum / whole volume of cells present in outermost layer)” value ([1]; test sample B, compared with test sample A not containing linoleic acid, FIG. 11) was “higher” and the “lipid droplets of sebum in the outermost layer of the sebaceous-gland-structure A” value [2] was “lipid droplets of sebum were found”.
